By IC50 is commonly meant the concentration needed to halve the response being measured.

We go through 21 compounds from patent publication US10611778B2, “Fused bicyclic inhibitors of menin-MLL interaction” (Janssen Pharmaceutica NV, priority 2016, dated 2020).

Assay [1] deals with T1, Menin/MLL (terbium chelate-labeled menin, FITC-MBM1 peptide) (Homo sapiens, UniProt O00255, T541A).
T1 construct: Menin (a.a. 1-610-6×his tag) was labeled with terbium cryptate as follows
T1 sequence (O00255 with tags, fused parts or gaps T541A): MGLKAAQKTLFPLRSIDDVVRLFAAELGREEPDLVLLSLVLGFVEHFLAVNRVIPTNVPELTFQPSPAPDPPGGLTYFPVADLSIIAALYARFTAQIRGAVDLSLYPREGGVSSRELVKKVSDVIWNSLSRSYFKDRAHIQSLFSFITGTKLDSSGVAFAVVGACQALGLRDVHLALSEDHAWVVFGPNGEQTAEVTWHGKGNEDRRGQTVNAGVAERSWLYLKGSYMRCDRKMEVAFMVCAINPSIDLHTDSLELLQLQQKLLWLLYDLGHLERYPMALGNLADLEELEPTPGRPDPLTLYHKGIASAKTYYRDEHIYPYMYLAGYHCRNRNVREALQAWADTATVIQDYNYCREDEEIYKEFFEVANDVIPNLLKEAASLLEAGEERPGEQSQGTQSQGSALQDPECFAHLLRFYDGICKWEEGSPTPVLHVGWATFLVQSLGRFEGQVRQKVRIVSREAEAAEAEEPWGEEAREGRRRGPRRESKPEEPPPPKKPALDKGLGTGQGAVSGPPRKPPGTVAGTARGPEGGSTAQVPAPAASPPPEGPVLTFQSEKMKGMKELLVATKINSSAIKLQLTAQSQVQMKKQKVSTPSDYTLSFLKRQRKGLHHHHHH
Briefly: Menin/MLL homogenous time-resolved fluorescence (HTRF) assay. It counts as binding. The settings on record: averaged values over all measurements; read-out: Menin HTRF assay (IC50). In outline: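 Compound preincubated 5 min with terbium-cryptate-labeled menin (aa 1-610, His-tagged; 100 pM final), then 75 nM FITC-MBM1 peptide added, 15 min at ambient temperature; 0.5% DMSO, Tris pH 7.5 buffer. HTRF ratio 520/490 nm; % inhibition vs saturating competitor, IC50 from 11-point three-fold titration from 31 μM.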

A further assay relates to MV-4-11. Briefly: Proliferation assay (spheroid assay) MV-4-11. It counts as cell-based, human. Conditions: Homo sapiens, MV4-11, MV-4-11; averaged values over all measurements; read-out: Spheroid assay MV-4-11 (IC50). As to the method:
(§1) The anti-proliferative effect of menin/MLL protein/protein interaction inhibitor test compounds was assessed in human leukemia cell lines. The cell lines MV-4-11 and MOLM14 harbor MLL translocations and express the MLL fusion proteins MLL-AF4 and MLL-AF9, respectively, as well as the wildtype protein from the second allele. […] K562 and KG1 were used as a control cell lines containing two MLL wildtype alleles in order to exclude compounds that display general cytotoxic effects.
(§2) MV-4-11 and MOLM14 were cultured in RPMI-1640 (Sigma Aldrich) supplemented with 10% fetal bovine serum (HyClone), 2 mM L-glutamine (Sigma Aldrich) and 50 μg/ml gentamycin (Gibco). K562 were propagated in RPMI-1640 (Sigma Aldrich) supplemented with 20% fetal bovine serum (HyClone), 2 mM L-glutamine (Sigma Aldrich) and 50 μg/ml gentamycin (Gibco). KG1 were cultured in Iscove's MDM (Gibco) supplemented with 20% fetal bovine serum (HyClone), 2 mM L-glutamine (Sigma Aldrich) and 50 μg/ml gentamycin (Gibco).
(§3) In order to assess the anti-proliferative effects, 1,500 MV-4-11, 300 MOLM14, 750 K562 or 1,300 KG1 cells were seeded in 200 μl media per well in 96-well round bottom, ultra-low attachment plates (Costar, catalogue number 7007). Cell seeding numbers were chosen based on growth curves to ensure linear growth throughout the experiment. Test compounds were added at different concentrations and the DMSO content was normalized to 0.3%. Cells were incubated for 8 d at 37° C. and 5% CO2. Spheroid like growth was monitored in real-time by live-cell imaging (IncuCyteZOOM, Essenbio, 4× objective) acquiring one image every four hours for 8 d. Confluence (%) as a measure of spheroid size was determined using an integrated analysis tool.
(§4) In order to determine the cumulative effect of the test compounds over time, the area under the curve (AUC) in a plot of confluence against time was calculated. Confluence at the beginning of the experiment (t=0) was used as baseline for the AUC calculation.
(§5) Absolute IC50 values were calculated according to the following procedure: % Control=(AUC sample/AUC control)*100
(§6) AUC control=mean AUC of control values (cells without compound/DMSO as vehicle control)
(§7) A non-linear curve fit was applied using the least squares (ordinary) fit method to the plot of % control versus compound concentration. Based on this, the absolute IC50 value (half maximal inhibitory concentration of the test compound causing an anti-proliferative effect of 50% relative to the vehicle control) was calculated.

The next assay relates to KG1. Briefly: Proliferation assay (spheroid assay) KG1 control cell line. Conditions: Homo sapiens, KG-1, averaged values over all measurements. It counts as cell-based. Here is the method:
as §1, §2, §3, §4, §5, §6, §7

Assay [2] deals with T2, Menin/MLL (menin, FITC-MBM1 peptide) (Homo sapiens, UniProt O00255, T541A).
T2 construct: 6xHis (C)
T2 sequence (O00255 with tags, fused parts or gaps T541A): T1 sequence (O00255 with tags, fused parts or gaps T541A)
The experiment in a line: Menin/MLL fluorescence polarization (FP) assay. The assay is classed as binding. The settings on record: averaged values over all measurements; read-out: Menin FP assay (IC50). Here is the method:
Pharmacological Part 1) Menin/MLL Fluorescence Polarization Assay
To a non-surface binding, black 384-well microtiter plate was added 50 nL 160× test compound in DMSO and 4 μL 2× menin in assay buffer (40 mM Tris-HCl, pH 7.5, 50 mM NaCl, 1 mM DTT and 0.001% Tween 20). After incubation of test compound and menin for 10 min at ambient temperature, 4 μL 2×FITC-MBM1 peptide (FITC-β-alanine-SARWRFPARPGT-NH2) in assay buffer was added, the microtiter plate centrifuged at 1000 rpm for 1 min and the assay mixtures incubated for 15 min at ambient temperature. The relative amount of menin: FITC-MBM1 complex present in an assay mixture is determined by measuring the fluorescence polarization (FP) of the FITC label with a BMG Pherastar plate reader (ex. 485 nm/em. 520 nm) at ambient temperature. The final concentrations of reagents in the binding assay are 100 nM menin, 5 nM FITC-MBM1 peptide and 0.625% DMSO in assay buffer. Dose-response titrations of test compounds are conducted using an 11 point, three-fold serial dilution scheme, starting at 31 μM.
Compound potencies were determined by first calculating % inhibition at each compound concentration according to equation 1: % inhibition=((HC−LC)−(FP^compound−LC))/(HC−LC))*100 (Eqn 1)
Where LC and HC are the FP values of the assay in the presence or absence of a saturating concentration of a compound that competes with FITC-MBM1 for binding to menin, and FP^compound is the measured FP value in the presence of the test compound. HC and LC FP values represent an average of at least 16 replicates per plate.
Where Bottom and Top are the lower and upper asymptotes of the dose-response curve, respectively, IC50 is the concentration of compound that yields 50% inhibition of signal and h is the Hill coefficient.

The next assay concerns MOLM14. Briefly: Proliferation assay (spheroid assay) MOLM14. It counts as cell-based, human. The settings on record: Homo sapiens, MOLM-14, MOLM14; averaged values over all measurements; read-out: Spheroid assay MOLM14 (IC50). As to the method: as §1, §2, §3, §4, §5, §6, §7

Regarding `Cc1cncc(CN2CC[C@@H]3CN(c4ncnc5sc(CC(F)(F)F)cc45)C[C@@H]3C2)c1` (single isomer, unassigned) [Compound 39], the IC50 in assay [1] stood at 165 nM; in the assay on MV-4-11, 670 nM; with KG1, 2500 nM.

Regarding `COc1ncccc1CN1CC[C@@H]2CN(c3ncnc4sc(CC(F)(F)F)cc34)C[C@@H]2C1` (single isomer, unassigned) [Compound 44], the IC50 in assay [1] is 87 nM; in the assay with MV-4-11 it was 2100 nM; in the assay with KG1 it was greater than 15000 nM.

Regarding `Cn1cc(CN2CC3CN(c4ncnc5sc(CC(F)(F)F)cc45)CC3C2)cn1` (stereo not drawn) [Compound 18], the IC50 in assay [2] is 520 nM; in assay [1], 1130 nM; in the assay on MV-4-11, greater than 15000 nM; with MOLM14, greater than 15000 nM.

Turning to `CC(C)(CO)CN1CC[C@@H]2CN(c3ncnc4sc(CC(F)(F)F)cc34)C[C@@H]2C1` (single isomer, unassigned) [Compound 58], the IC50 in assay [1] was 63 nM; in the assay on MV-4-11 it was 990 nM; in the assay on KG1, greater than 15000 nM.

On to `FC(F)(F)Cc1cc2c(N3CC[C@@H]4[C@@H](CCN4Cc4ccccc4)C3)ncnc2s1` (single isomer, unassigned) [Compound 3], for which the IC50 in assay [2] worked out at 89 nM; in assay [1] it was 61 nM; with MV-4-11, 2000 nM; in the assay on MOLM14 it was 3800 nM.

With `FC(F)(F)Cc1cc2c(N3CC[C@@H]4[C@@H](CCN4Cc4ccc(Cl)nc4)C3)ncnc2s1` (single isomer, unassigned) [Compound 10], the IC50 in assay [2] came out at 250 nM; in assay [1], 118 nM; in the assay with MV-4-11 it was 4400 nM; in the assay on MOLM14, 2000 nM.

For `Cn1cc(CN2CC[C@@H]3CN(c4ncnc5sc(CC(F)(F)F)cc45)C[C@@H]32)cn1` [Compound 27A], the results for the IC50 in assay [2] and in assay [1] were 4540 nM and 10000 nM, respectively.

In the case of `FC(F)(F)Cc1cc2c(N3C[C@H]4CCN(CC5CCCCO5)C[C@H]4C3)ncnc2s1` (single isomer, unassigned) [Compound 100], the IC50 in assay [1] is 57 nM; with MV-4-11, 930 nM; in the assay with KG1, greater than 15000 nM.

`Cn1ccnc1CN1CCC2CN(c3ncnc4sc(CC(F)(F)F)cc34)CCC21` (stereo not drawn) [Compound 19]: the IC50 in assay [2] came out at 1770 nM; in assay [1] it was 4570 nM.

As to `Cc1nc(CN2CC[C@H]3CN(c4ncnc5sc(CC(F)(F)F)cc45)CC[C@H]32)cs1` (single isomer, unassigned) [Compound 12], the IC50 in assay [2] is 430 nM; in assay [1], 860 nM; in the assay on MV-4-11, 2100 nM; in the assay with MOLM14 it was 9200 nM.

In the case of `FC(F)(F)Cc1cc2c(N3C[C@H]4CCN(CC5CCOC5)C[C@H]4C3)ncnc2s1` (single isomer, unassigned) [Compound 101], the IC50 in assay [1] is 28 nM; with MV-4-11, 410 nM; in the assay on KG1, greater than 15000 nM.

As for `Cn1cc(CN2CC[C@@H]3CN(c4ncnc5sc(CC(F)(F)F)cc45)CC[C@@H]32)cn1` (single isomer, unassigned) [Compound 13], the IC50 is 520 nM in assay [2], 13700 nM in the assay with MV-4-11 and greater than 15000 nM with MOLM14.

Turning to `FC(F)(F)Cc1cc2c(N3C[C@H]4CN(Cc5ccccc5)[C@H]4C3)ncnc2s1` [Compound 33], the IC50 in assay [2] was found to be 1190 nM; in assay [1] it was 2100 nM.

As to `FC(F)(F)Cc1cc2c(N3CC[C@H]4[C@H](CCN4Cc4ccccc4)C3)ncnc2s1` (single isomer, unassigned) [Compound 4], the IC50 in assay [2] came out at 230 nM; in assay [1], 69 nM; in the assay on MV-4-11, 8300 nM; in the assay on MOLM14, 12800 nM.

On to `OCCn1cccc1CN1CCC2CN(c3ncnc4sc(CC(F)(F)F)cc34)CCC21` (stereo not drawn) [Compound 23], for which the IC50 turned out to be 220 nM in assay [2], 366 nM in assay [1], 1700 nM in the assay with MV-4-11 and 4300 nM with MOLM14.

On to `CC(C)CN1CC[C@@H]2CN(c3ncnc4sc(CC(F)(F)F)cc34)C[C@@H]21` (single isomer, unassigned) [Compound 28A], for which the concentration for half-maximal inhibition (IC50) in assay [2] was found to be 1170 nM; in assay [1], 1730 nM.

As to `FC(F)(F)Cc1cc2c(N3CCC4C(CCN4Cc4cc[nH]n4)C3)ncnc2s1` (stereo not drawn) [Compound 84], the IC50 in assay [2] was found to be 1020 nM; in assay [1] it was 906 nM.

`[CH3][Ge]([CH3])([CH3])[CH2]N1CCC2CN(c3ncnc4sc(CC(F)(F)F)cc34)CCC21` (stereo not drawn) [Compound 15]: the IC50 in assay [2] was found to be 130 nM; in assay [1], 120 nM.

As for `Cn1cc(CN2CCC3CN(c4ncnc5sc(CC(F)(F)F)cc45)CC3C2)cn1` (stereo not drawn) [Compound 71], the IC50 came to 88 nM in assay [2], 70 nM in assay [1], 840 nM in the assay on MV-4-11 and 6700 nM in the assay with MOLM14.

In the case of `Cn1cc(CN2CC[C@H]3CN(c4ncnc5sc(CC(F)(F)F)cc45)CC[C@H]32)cn1` (single isomer, unassigned) [Compound 9], the IC50 in assay [2] stood at 98 nM; in assay [1], 106 nM; with MV-4-11, 3500 nM; in the assay on MOLM14, 10300 nM.

Regarding `FC(F)(F)Cc1cc2c(N3CC[C@H]4[C@H](CCN4Cc4ccc(Cl)nc4)C3)ncnc2s1` (single isomer, unassigned) [Compound 11], the IC50 in assay [2] was 590 nM; in assay [1], 680 nM; in the assay with MV-4-11 it was greater than 15000 nM; in the assay with MOLM14 it was greater than 15000 nM.
